From patent US20090036470A1, “PALIPERIDONE DERIVATIVES” (priority 2007, published 2009)

Test: Conversion of the compound (2) into paliperidone in acidic fluid (dissolution test of the Example 5 tablet in Simulated Gastric Fluid)
Format: physicochemical
Description: Conversion of the Compound (2) into Paliperidone in Acidic Fluid
A tablet of the following composition was prepared:
Compound (2), Prosolv HD-90 and low substituted hydroxypropylcellulose were mixed for 10 minutes at 22 rpm in a free fall mixer. The blend was forced sieved over a 250 micron sieve. The blend was then mixed for another 10 minutes in a free fall mixer at 22 rpm. The sodium stearyl fumarate was sieved over an 800 micron sieve and added to the blend. The blend was mixed for another 5 minutes at 22 rpm. Tablets were compressed on the Ek-0. Tablet mass was 100 mg, tablet hardness 30 N and the tablet diameter was 8 mm.
Determination of the dissolution assay at single point or dissolution profile was performed in Simulated Gastric Fluid (SGF) without pepsin (pH=1.2) with the paddle apparatus based on USP <711>, “Apparatus 2”. The dissolution samples were immediately neutralized to pH=7 upon sampling. The amount of paliperidone and compound (2) in the neutralized dissolution samples at the specified time point(s) was determined by HPLC at 280 nm.

time for quantitative conversion into paliperidone (Simulated Gastric Fluid without pepsin, pH=1.2, USP paddle apparatus 2, from Example 5 tablet (10.8 mg compound (2)), HPLC at 280 nm, six vessel test, FIGS. 1 and 2): approx. 10 minutes | extent of conversion into paliperidone (acidic fluid, as shown in FIG. 1): quantitatively
Compound: Cc1nc2n(c(=O)c1CCN1CCC(c3noc4cc(F)ccc34)CC1)CCCC2OC1CCCCO1 (centres unmarked) [Compound (2)]
